Experiments:
[1] = system: MOLM-13 cells (FLT3-ITD-/+); assay: Inhibition of cell proliferation by MTT experiment, MOLM-13; type: cell-based, human; conditions: Homo sapiens, MOLM-13; MTT, 72 h; read-out: IC50 value on cell proliferation inhibition, MOLM-13 FLT3-ITD-/+
Excerpt: (§1) MV4-11, MOLM-13 and SET-2 were used to determine the influence of the test compound of the present invention on the activity of cancer cells. MV4-11 and MOLM-13 were human leukemia cell lines from American Type Culture Collection (ATCC), expressing FLT3 receptor and containing FLT3-ITD mutation; and SET-2 was a primary thrombocythemia cell purchased from Chengdu Bowerston Biotechnology Co., Ltd., China, continuously expressing JAK2 receptor and containing the mutation of V617F.
(§2) MV4-11, MOLM-13 and SET-2 cells were filled in a 96-well petri dish with 100 μL IMDM as the medium, containing 10% fetal bovine serum (100 mL/bottle, purchased from Grassland Lvye Bio-Engineering Materials Co., Ltd. and cryopreserved at −20° C.), and with 10,000-15,000 cells in each well. […] In each group, 3-5 replicate wells were set and incubated in 5% CO2 at 37° C. for 72 h. At the endpoint, 20 μL MTT (5 mg/mL) was added to each well, and the cells were incubated for another 1-3 h.
(§3) After the inhibition rate of each concentration of compound on cell proliferation activity was calculated, the dose-response curve and IC50 value were fitted by Graphpad prism software according to the compound treatment concentrations and corresponding inhibition rates.

[2] = system: MV4-11 cells (FLT3-ITD+/+); assay: Inhibition of cell proliferation by MTT experiment, MV4-11; type: cell-based, human; conditions: Homo sapiens, MV4-11; MTT, 72 h; read-out: IC50 value on cell proliferation inhibition, MV4-11 FLT3-ITD+/+
Excerpt: as §1, §2, §3

JAK2 = molecular target: T1, JAK2 (Homo sapiens, UniProt O60674); assay: In vitro kinase activity experiment, JAK2; type: biochemical; conditions: inhibition rate of enzyme at 500 nM; measured by Eurofins
T1 construct: purchased Eurofins
Method: (§4) Buffer solution ([…], pH 7.0, 0.2 mm EDTA, 10 mM mncl2), kinase to be tested, substrate of kinase to be tested, 10 mM magnesium acetate and γ33P-ATP solution, and compounds with different concentrations were added to a reaction tube in turn, then MgATP was added to initiate the enzyme reaction process, and incubated at room temperature for 40 min. Then, the reaction was terminated with 5 μl of […], and 10 μl of the reaction solution was titrated onto the Filtermat A membrane, washed with 75 mM phosphate solution for three times, each time for 5 min., and then washed with methanol once. Finally, the Filtermat A membrane was dried and the scintillation count was carried out.

FLT3 = molecular target: T2, FLT3 (Homo sapiens, UniProt P36888); assay: In vitro kinase activity experiment, FLT3; type: biochemical; conditions: 40 min; inhibition rate of enzyme at 500 nM; measured by Eurofins; read-out: Kinase activity @ 500 nM (%) FLT3
T2 construct: purchased Eurofins
T2 sequence (P36888 27-993): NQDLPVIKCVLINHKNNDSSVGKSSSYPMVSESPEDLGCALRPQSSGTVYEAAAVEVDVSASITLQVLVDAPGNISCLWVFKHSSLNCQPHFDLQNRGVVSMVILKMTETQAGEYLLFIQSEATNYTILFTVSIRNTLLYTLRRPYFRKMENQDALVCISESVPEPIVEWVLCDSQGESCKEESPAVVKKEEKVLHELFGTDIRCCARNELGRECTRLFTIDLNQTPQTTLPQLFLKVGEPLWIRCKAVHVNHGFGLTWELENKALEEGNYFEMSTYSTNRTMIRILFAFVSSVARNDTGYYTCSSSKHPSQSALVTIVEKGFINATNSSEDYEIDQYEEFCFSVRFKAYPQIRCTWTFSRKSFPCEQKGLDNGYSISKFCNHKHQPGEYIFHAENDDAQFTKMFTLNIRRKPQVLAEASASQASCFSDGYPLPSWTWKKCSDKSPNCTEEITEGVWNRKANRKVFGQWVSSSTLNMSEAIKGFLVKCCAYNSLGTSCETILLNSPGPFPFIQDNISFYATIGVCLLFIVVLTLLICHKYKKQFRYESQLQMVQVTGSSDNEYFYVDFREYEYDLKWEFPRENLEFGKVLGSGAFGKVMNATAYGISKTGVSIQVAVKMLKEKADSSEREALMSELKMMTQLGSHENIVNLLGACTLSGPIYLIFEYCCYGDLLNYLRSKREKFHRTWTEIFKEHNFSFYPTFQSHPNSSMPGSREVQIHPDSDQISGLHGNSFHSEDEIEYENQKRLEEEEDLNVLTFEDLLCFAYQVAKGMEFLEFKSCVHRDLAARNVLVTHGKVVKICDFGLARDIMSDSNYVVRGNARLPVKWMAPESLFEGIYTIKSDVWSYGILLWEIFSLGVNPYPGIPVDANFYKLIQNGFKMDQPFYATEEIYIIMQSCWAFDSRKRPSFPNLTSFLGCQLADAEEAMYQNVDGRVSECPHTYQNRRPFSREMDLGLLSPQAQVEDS
Method: as §4

SET-2 cells (JAK2 V617F) = assay: Inhibition of cell proliferation by MTT experiment, SET-2; type: cell-based; conditions: Homo sapiens, SET-2; MTT, 72 h; read-out: IC50 value on cell proliferation inhibition, SET-2 (V617F)
Excerpt: as §1, §2, §3

T1 sequence (O60674 whole entry): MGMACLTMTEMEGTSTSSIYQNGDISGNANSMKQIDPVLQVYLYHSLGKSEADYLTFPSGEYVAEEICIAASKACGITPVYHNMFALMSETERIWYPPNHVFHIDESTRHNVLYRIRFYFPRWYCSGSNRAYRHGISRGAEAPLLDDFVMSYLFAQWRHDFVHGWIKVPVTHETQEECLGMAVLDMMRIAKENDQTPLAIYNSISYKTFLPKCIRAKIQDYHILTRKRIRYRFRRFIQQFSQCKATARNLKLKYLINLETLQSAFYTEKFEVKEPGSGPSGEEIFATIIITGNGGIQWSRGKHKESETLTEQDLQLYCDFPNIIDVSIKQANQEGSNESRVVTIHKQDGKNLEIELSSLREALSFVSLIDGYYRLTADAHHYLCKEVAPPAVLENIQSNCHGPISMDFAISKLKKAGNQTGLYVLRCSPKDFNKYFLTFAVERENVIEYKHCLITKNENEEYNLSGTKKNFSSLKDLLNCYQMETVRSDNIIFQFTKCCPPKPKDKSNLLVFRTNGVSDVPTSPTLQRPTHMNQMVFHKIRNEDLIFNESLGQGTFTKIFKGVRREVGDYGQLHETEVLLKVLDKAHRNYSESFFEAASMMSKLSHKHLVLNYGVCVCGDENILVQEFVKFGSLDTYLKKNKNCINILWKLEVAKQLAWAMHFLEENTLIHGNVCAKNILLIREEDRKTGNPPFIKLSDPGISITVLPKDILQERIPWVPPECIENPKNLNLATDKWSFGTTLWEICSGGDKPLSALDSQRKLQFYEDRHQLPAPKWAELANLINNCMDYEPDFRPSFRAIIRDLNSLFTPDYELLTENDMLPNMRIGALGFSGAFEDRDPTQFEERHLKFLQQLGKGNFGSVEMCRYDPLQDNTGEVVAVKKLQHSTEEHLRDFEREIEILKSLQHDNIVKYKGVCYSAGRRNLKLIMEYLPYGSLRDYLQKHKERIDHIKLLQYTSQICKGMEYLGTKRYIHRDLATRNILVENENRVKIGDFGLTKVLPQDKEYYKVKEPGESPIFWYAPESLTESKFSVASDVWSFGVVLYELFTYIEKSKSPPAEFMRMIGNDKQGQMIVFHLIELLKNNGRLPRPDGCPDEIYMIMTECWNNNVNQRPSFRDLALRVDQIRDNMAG

Structure (SMILES) | IC50 [1] [nM] | IC50 [2] [nM] | Kinase activity @ 500 nM (%) JAK2 (JAK2) [%] | inhibition at 0.5 µM (FLT3) [%] | IC50 (SET-2 cells (JAK2 V617F)) [nM]
Cc1cnc(Nc2ccc(N3CCN(C(=O)CO)CC3)c(F)c2)nc1-c1cnn(C(C)C)c1 [CLJ-40, 5-methyl-N-(3-fluoro-4-(4-hydroxyacetylpiperazine-1-yl)phenyl)-4-(1-isopropyl-1H-pyrazole-4-yl) pyrimidine-2-amine] | 10 to 100 | 10 to 100 | 96 | 94 | 100 to 1000
Cc1cnc(Nc2ccc(N3CCC(N(C)C(=O)CO)CC3)c(F)c2)nc1-c1cnn(C(C)C)c1 [CLJ-41, N-(1-(2-fluoro-4-((4-(1-isopropyl-1H-pyrazol-4-yl)-5-methylpyrimidine-2-yl)amino)phenyl)piperidine-4-yl)-2-hydroxy-N-methylacetamide] | 100 to 1000 | 10 to 100 | 102 | 97 | 100 to 1000
Cc1cnc(Nc2ccc(N3CCC(CO)CC3)c(F)c2)nc1-c1cnn(C(C)C)c1 [CLJ-42, 5-methyl-N-(3-fluoro-4-(4-hydroxymethylpiperidine-1-yl)phenyl)-4-(1-isopropyl-1H-pyrazole-4-yl) pyrimidine-2-amine] | 100 to 1000 | 10 to 100 | 100 | 95 | 100 to 1000
Cc1cnc(Nc2ccc(N3CCC(NCCO)CC3)c(F)c2)nc1-c1cnn(C(C)C)c1 [CLJ-43, 5-methyl-N-(3-fluoro-4-(4-hydroxyethylaminopiperidine-1-yl)phenyl)-4-(1-isopropyl-1H-pyrazole-4-yl) pyrimidine-2-amine] | 100 to 1000 | 10 to 100 | 95 | 94 | 100 to 1000
Cc1cnc(Nc2ccc(N3CCC(N(C)CCCO)CC3)c(F)c2)nc1-c1cnn(C(C)C)c1 [CLJ-45, 5-methyl-N-(3-fluoro-4-(4-N-hydroxypropyl-4-N-methylaminopiperidine-1-yl)phenyl)-4-(1-isopropyl-1H-pyrazole-4-yl) pyrimidine-2-amine] | 10 to 100 | 1 to 10 | 91 | 98 | 100 to 1000
Cc1cnc(Nc2ccc(N3CCC(N(C)CCCCO)CC3)c(F)c2)nc1-c1cnn(C(C)C)c1 [CLJ-46, 5-methyl-N-(3-fluoro-4-(4-N-hydroxybutyl-4-N-methylaminopiperidine-1-yl)phenyl)-4-(1-isopropyl-1H-pyrazole-4-yl) pyrimidine-2-amine] | 10 to 100 | 1 to 10 | 102 | 98 | 100 to 1000
Cc1cnc(Nc2ccc(N3CCC(N(C)CCCCCO)CC3)c(F)c2)nc1-c1cnn(C(C)C)c1 [CLJ-47, 5-methyl-N-(3-fluoro-4-(4-N-hydroxypentyl-4-N-methylaminopiperidine-1-yl)phenyl)-4-(1-isopropyl-1H-pyrazole-4-yl) pyrimidine-2-amine] | 10 to 100 | 1 to 10 | 93 | 94 | 100 to 1000
CCOCCN(C)C1CCN(c2ccc(Nc3ncc(C)c(-c4cnn(C(C)C)c4)n3)cc2F)CC1 [CLJ-48, 5-methyl-N-(3-fluoro-4-(4-N-ethoxyethyl-4-N-methylaminopiperidine-1-yl)phenyl)-4-(1-isopropyl-1H-pyrazole-4-yl) pyrimidine-2-amine] | 100 to 1000 | 100 to 1000 | 93 | 96 | 100 to 1000
CCCN(C)C1CCN(c2ccc(Nc3ncc(C)c(-c4cnn(C(C)C)c4)n3)cc2F)CC1 [CLJ-49, 5-methyl-N-(3-fluoro-4-(4-N-propyl-4-N-methylaminopiperidine-1-yl)phenyl)-4-(1-isopropyl-1H-pyrazole-4-yl) pyrimidine-2-amine] | 100 to 1000 | 100 to 1000 | 95 | 91 | 100 to 1000
CCCCN(C)C1CCN(c2ccc(Nc3ncc(C)c(-c4cnn(C(C)C)c4)n3)cc2F)CC1 [CLJ-50, 5-methyl-N-(3-fluoro-4-(4-N-butyl-4-N-methylaminopiperidine-1-yl)phenyl)-4-(1-isopropyl-1H-pyrazole-4-yl) pyrimidine-2-amine] | > 1000 | 100 to 1000 | 89 | 90 | > 1000
CCCCCCN(C)C1CCN(c2ccc(Nc3ncc(C)c(-c4cnn(C(C)C)c4)n3)cc2F)CC1 [CLJ-51, 5-methyl-N-(3-fluoro-4-(4-N-hexyl-4-N-methylaminopiperidine-1-yl)phenyl)-4-(1-isopropyl-1H-pyrazole-4-yl) pyrimidine-2-amine] | 1 to 10 | 100 to 1000 | 95 | 93 | 100 to 1000
Cc1cnc(Nc2ccc(N3CCC(N(C)CC4CCCO4)CC3)c(F)c2)nc1-c1cnn(C(C)C)c1 (stereo not drawn) [CLJ-53, N-(3-fluoro-4-(4-(methyl((tetrahydrofuran-2-yl)methyl)amino)piperidine-1-yl)phenyl)-4-(1-isopropyl-1H-pyrazole-4-yl)-5-methylpyrimidine-2-amine] | 10 to 100 | 1 to 10 | 100 | 98 | 100 to 1000
Cc1cnc(Nc2ccc(N3CCC(N(C)CCN4CCOCC4)CC3)c(F)c2)nc1-c1cnn(C(C)C)c1 [CLJ-54, N-(3-fluoro-4-(4-(methyl (2-morpholinoethyl)amino)piperidine-1-yl)phenyl)-4-(1-isopropyl-1H-pyrazole-4-yl)-5-methylpyrimidine-2-amine] | > 1000 | > 1000 | 17 | 23 | > 1000
Cc1cnc(Nc2ccc(N3CCC(N(C)CCN4CCCCC4)CC3)c(F)c2)nc1-c1cnn(C(C)C)c1 [CLJ-55, N-(3-fluoro-4-(4-(methyl (1-piperidylethyl)amino)piperidine-1-yl)phenyl)-4-(1-isopropyl-1H-pyrazole-4-yl)-5-methylpyrimidine-2-amine] | > 1000 | > 1000 | 25 | 20 | > 1000
Cc1cnc(Nc2ccc(N3CCC(N(C)CCN4CCN(C)CC4)CC3)c(F)c2)nc1-c1cnn(C(C)C)c1 [CLJ-56, N-(3-fluoro-4-(4-(methyl (4-methyl-1-piperazine ethyl)amino)piperidine-1-yl)phenyl)-4-(1-isopropyl-1H-pyrazole-4-yl)-5-methylpyrimidine-2-amine] | 10 to 100 | 10 to 100 | 99 | 96 | 100 to 1000

— patent US12428394B2, “2,4-disubstituted pyrimidine derivative, preparation method therefor and use thereof” (CHENGDU ZENITAR BIOMEDICAL TECHNOLOGY CO., LTD., priority 2019, dated 2025)
